Experimental data: patent US20260193293A1, “PEPTIDES CAPABLE OF INHIBITING PROTEIN-PROTEIN INTERACTIONS AT GABAB1A SUBUNIT AND USES THEREOF” (UNIVERSITY OF COPENHAGEN, priority 2022, published 2026)
Like-named read-outs stand apart in the source and are kept apart here. Non-standard residues stand in square brackets, D forms with d. Residues, ends and D or L forms follow the SMILES beside them. *: point of attachment. NMeE = CN[C@@H](CCC(=O)O)C(=O)O; NMeA = CN[C@@H](C)C(=O)O; Bn = c1ccc(C*)cc1; Sar = CNCC(=O)O

Target: Sushi domains (SD1/2) protein
Assay: Fluorescence polarization (FP) competition assay with AJAP-1probe, calculated Ki
Assay type: binding
Protocol: Fluorescence polarization (FP). FP assay was employed to determine the binding affinity of peptides in flat bottom black 384-well plates (Corning Life Science) using a Safire2 plate reader (Tecan). All experiments were conducted in 1×PBS (pH 7.4) containing 1% bovine serum albumin (BSA) at rt. The fluorescence polarization values were measured using excitation/emission wavelengths of 530/580 nm. The instrumental Z-factor was adjusted to obtain the maximum fluorescence intensity and the G-factor was calibrated to give an initial millipolarization value of 20 mP. All FP assays including saturation or competition experiments were performed using 25 nM of TAMRA labeled peptides as probes. For saturation assay, the millipolarization values were measured after mixing of probes with 12 serial 1 to 1 diluted concentrations of Sushi domains (SD1/2) protein. All experiments were performed in triplicate and the data were plotted to the one-site binding model using GraphPad Prism 9 to calculate the Kd of probes. […] The experiments were performed at least in triplicate and the data were fitted to the sigmoidal dose response curve using GraphPad Prism 9 to obtain the IC50 of peptides. The Ki values were calculated according to Nikolovska-Coleska et al^310.

[1] = Table 10, deep mutational scanning validation variants of APPWT, read-out: Ki (nM) mean ± SEM
[2] = Table 4, truncation and elongation scans of APP epitope, read-out: Ki (nM) mean ± SEM
[3] = Table 16, ncAAs incorporated peptides, read-out: Ki (nM) mean ± SEM
[4] = Table 13, peptides for affinity maturation, read-out: Ki (nM) mean ± SEM

`CC[C@H](C)[C@H](NC(=O)[C@H](Cc1ccccc1)NC(=O)[C@H](CCC(=O)O)NC(=O)[C@@H](NC(=O)[C@H](CCC(=O)O)NC(=O)[C@@H](NC(=O)[C@@H](NC(=O)[C@@H]1CCCN1C(=O)[C@H](CCCNC(=N)N)NC(C)=O)[C@@H](C)O)[C@@H](C)O)[C@@H](C)O)C(=O)N[C@@H](C)C(=O)N[C@@H](Cc1c[nH]c2ccccc12)C(=O)NCC(=O)N1CCC[C@H]1C(=O)N[C@H](C(=O)NCC(=O)N[C@@H](CC(=O)O)C(=O)N[C@@H](CCC(=O)O)C(=O)N[C@@H](CC(=O)O)C(N)=O)[C@@H](C)O` showed a Ki (Table 5, elongation and truncation scan of AJAP-1 binding epitope, read-out: Ki (nM) mean ± SEM) of 58 ± 0.4 nM.

`CC(=O)N[C@@H](CCC(=O)O)C(=O)N[C@@H](CC(=O)O)C(=O)N[C@@H](CC(=O)O)C(=O)N[C@@H](CO)C(=O)N[C@@H](Cc1ccc(O)cc1)C(=O)N[C@H](C(=O)N[C@@H](Cc1c[nH]c2ccccc12)C(=O)N[C@@H](Cc1c[nH]c2ccccc12)C(=O)NCC(=O)NCC(=O)N[C@@H](C)C(=O)N[C@@H](CC(=O)O)C(=O)N[C@H](C(=O)N[C@@H](CC(=O)O)C(N)=O)[C@@H](C)O)C(C)C` (Ac-EDDSYVWWGGADTD-NH2) showed a Ki [1] of 191 ± 10 nM.

In the case of `CC[C@H](C)[C@H](NC(=O)[C@H](Cc1c[nH]c2ccccc12)NC(=O)[C@H](CC(=O)O)NC(=O)[C@H](CC(=O)O)NC(=O)[C@H](CC(=O)O)NC(=O)[C@H](CCC(=O)O)NC(=O)[C@H](CCCNC(=N)N)NC(=O)[C@H](CCCNC(=N)N)NC(=O)[C@H](CCCNC(=N)N)NC(=O)[C@H](CCCNC(=N)N)NC(=O)[C@H](CCCNC(=N)N)NC(=O)[C@H](CCCNC(=N)N)NC(C)=O)C(=O)N[C@@H](CC(=O)O)C(=O)N[C@@H](Cc1c[nH]c2ccccc12)C(=O)N[C@@H](Cc1ccc(O)cc1)C(=O)N[C@@H](CC(=O)O)C(=O)N[C@@H](CO)C(=O)N[C@@H](CC(=O)O)C(=O)N[C@@H](CC(=O)O)C(=O)N[C@@H](CC(=O)O)C(N)=O` (Ac-RRRRRREDDDWIDWYDSDDD-NH2), the Ki (Table 14, CPPs tagged peptides, read-out: Ki (nM) mean ± SEM) is reported as 70.9 ± 1 nM.

Work on `CC[C@H](C)[C@H](NC(=O)[C@H](C)NC(=O)[C@H](Cc1c[nH]c2ccccc12)NC(=O)[C@@H]1CCCN1C(C)=O)C(=O)N[C@H](C(=O)N[C@@H](Cc1c[nH]c2ccccc12)C(=O)NCC(=O)N1CCC[C@H]1C(=O)N[C@H](C(=O)N[C@H](C(=O)N[C@@H](CO)C(=O)N[C@@H](CCCNC(=N)N)C(=O)N[C@@H](CCC(=O)O)C(=O)N[C@@H](CC(=O)O)C(=O)NCC(=O)NCC(=O)N[C@@H](CC(=O)O)C(=O)N1CCC[C@H]1C(N)=O)C(C)C)[C@@H](C)O)C(C)C` (Ac-PWAIVWGPTVSREDGGDP-NH2) yielded a Ki (Table 6, elongation and truncation scan of PIANP binding epitope, read-out: Ki (nM) mean ± SEM) of 597 ± 7 nM.

Compound `CC(=O)N[C@@H](CC(=O)O)C(=O)N[C@@H](C)C(=O)N[C@@H](CCC(=O)O)C(=O)N[C@@H](CCC(=O)O)C(=O)N[C@@H](CC(=O)O)C(=O)N[C@@H](CC(=O)O)C(=O)N[C@@H](CO)C(=O)N[C@@H](CC(=O)O)C(=O)N[C@H](C(=O)N[C@@H](Cc1c[nH]c2ccccc12)C(=O)N[C@@H](Cc1c[nH]c2ccccc12)C(=O)NCC(=O)NCC(=O)N[C@@H](C)C(=O)N[C@@H](CC(=O)O)C(=O)N[C@H](C(=O)N[C@@H](CC(=O)O)C(=O)N[C@@H](Cc1ccc(O)cc1)C(=O)N[C@@H](C)C(=O)N[C@@H](CC(=O)O)C(N)=O)[C@@H](C)O)C(C)C` (Ac-DAEEDDSDVWWGGADTDYAD-NH2) has a Ki [2] of 247 ± 7 nM.

`CC[C@H](C)[C@H](NC(=O)[C@H](Cc1ccccc1)NC(=O)[C@H](CCC(=O)O)NC(=O)[C@@H](NC(=O)[C@H](CCC(=O)O)NC(C)=O)[C@@H](C)O)C(=O)N[C@@H](C)C(=O)N[C@@H](Cc1c[nH]c2ccccc12)C(=O)NCC(=O)N1CCC[C@H]1C(=O)N[C@H](C(=O)NCC(=O)N[C@@H](CC(=O)O)C(=O)N[C@@H](CCC(=O)O)C(=O)N[C@@H](Cc1ccc(O)cc1)C(N)=O)[C@@H](C)O` gave a Ki (Table 11, deep mutational scanning validation variants of AJAP-1WT, read-out: Ki (nM) mean ± SEM) of 39 ± 1 nM.

For `CC[C@H](C)[C@H](NC(=O)[C@H](Cc1ccccc1)NC(=O)[C@H](CCC(=O)O)NC(=O)[C@@H](NC(=O)[C@H](CCC(=O)O)NC(C)=O)[C@@H](C)O)C(=O)N1CCC[C@H]1C(=O)N[C@@H](Cc1c[nH]c2ccccc12)C(=O)NCC(=O)N1CCC[C@H]1C(=O)N[C@H](C(=O)NCC(=O)N[C@@H](CC(=O)O)C(=O)N[C@@H](CCC(=O)O)C(=O)N[C@@H](CC(=O)O)C(N)=O)[C@@H](C)O` [ETEFIPWGPTGDED] (Ac-ETEFIPWGPTGDED-NH2), the Ki (Table 11, cells printed in μM, read-out: Ki (nM) mean ± SEM) was > 6250 nM.

For `CC(=O)N[C@@H](Cc1c[nH]c2ccccc12)C(=O)NCC(=O)NCC(=O)N[C@@H](C)C(=O)N[C@@H](CC(=O)O)C(=O)N[C@H](C(=O)N[C@@H](CC(=O)O)C(=O)N[C@@H](Cc1ccc(O)cc1)C(=O)N[C@@H](C)C(=O)N[C@@H](CC(=O)O)C(N)=O)[C@@H](C)O` (Ac-WGGADTDYAD-NH2), the Ki [2] was > 62500 nM.

`CC(=O)N[C@@H](CCC(=O)O)C(=O)N[C@@H](CC(=O)O)C(=O)N[C@@H](CC(=O)O)C(=O)N[C@@H](CO)C(=O)N[C@@H](CC(=O)O)C(=O)N[C@H](C(=O)N[C@@H](Cc1c[nH]c2ccccc12)C(=O)N[C@@H](Cc1c[nH]c2ccccc12)C(=O)NCC(=O)NCC(=O)N[C@@H](C)C(=O)N[C@@H](CC(=O)O)C(=O)N[C@@H](Cc1c[nH]cn1)C(=O)N[C@@H](CC(=O)O)C(N)=O)C(C)C` (Ac-EDDSDVWWGGADHD-NH2) showed a Ki [1] of 739 ± 9 nM.

`CC(=O)N[C@@H](CCC(=O)O)C(=O)N[C@@H](CC(=O)O)C(=O)N[C@@H](CC(=O)O)C(=O)N[C@@H](CO)C(=O)N[C@@H](CC(=O)O)C(=O)N[C@H](C(=O)N[C@@H](Cc1c[nH]c2ccccc12)C(=O)N[C@@H](C)C(=O)NCC(=O)NCC(=O)N[C@@H](C)C(=O)N[C@@H](CC(=O)O)C(=O)N[C@H](C(=O)N[C@@H](CC(=O)O)C(N)=O)[C@@H](C)O)C(C)C` (Ac-EDDSDVWAGGADTD-NH2) was tested, and the Ki (Table 7, cells printed in μM, read-out: Ki (nM) mean ± SEM) was > 62500 nM.

For `CC(=O)N[C@@H](CCC(=O)O)C(=O)N[C@@H](CC(=O)O)C(=O)N[C@@H](CC(=O)O)C(=O)N[C@@H](CO)C(=O)N[C@@H](CC(=O)O)C(=O)N[C@H](C(=O)N[C@@H](Cc1c[nH]c2ccccc12)C(=O)N[C@@H](Cc1ccc(OCc2ccccc2)cc1)C(=O)NCC(=O)NCC(=O)N[C@@H](C)C(=O)N[C@@H](CC(=O)O)C(=O)N[C@H](C(=O)N[C@@H](CC(=O)O)C(N)=O)[C@@H](C)O)C(C)C` [EDDSDVW(Obtyr)GGADTD] (Ac-EDDSDVWY(Bn)GGADTD-NH2), the Ki [3] was 3860 ± 62 nM.

`CC[C@H](C)[C@H](NC(=O)[C@H](Cc1ccccc1)NC(=O)[C@H](CCC(=O)O)NC(=O)[C@@H](NC(=O)[C@H](CCC(=O)O)N(C)C(C)=O)[C@@H](C)O)C(=O)N[C@@H](C)C(=O)N[C@@H](Cc1c[nH]c2ccccc12)C(=O)NCC(=O)N1CCC[C@H]1C(=O)N[C@H](C(=O)NCC(=O)N[C@@H](CC(=O)O)C(=O)N[C@@H](CCC(=O)O)C(=O)N[C@@H](CC(=O)O)C(N)=O)[C@@H](C)O` [(N-Me-E)TEFIAWGPTGDED] (Ac-[NMeE]TEFIAWGPTGDED-NH2) was tested, and the Ki (Table 8, Ala-, D-amino acids and N-methylation scans of AJAP-1WT, read-out: Ki (nM) mean ± SEM) was 35 ± 1 nM.

In the case of `CC(=O)N[C@@H](CCC(=O)O)C(=O)N[C@@H](CC(=O)O)C(=O)N[C@@H](CC(=O)O)C(=O)N[C@@H](CO)C(=O)N[C@@H](CC(=O)O)C(=O)N[C@H](C(=O)N[C@@H](Cc1c[nH]c2ccccc12)C(=O)N[C@@H](Cc1c[nH]c2ccccc12)C(=O)NCC(=O)N1CCC[C@H]1C(=O)N[C@H](C(=O)NCC(=O)N[C@@H](CC(=O)O)C(=O)N[C@@H](CCC(=O)O)C(=O)N[C@@H](CC(=O)O)C(N)=O)[C@@H](C)O)C(C)C` [Peptide X, Ac-EDDSDVWWGPTGDED-NH2] (Ac-EDDSDVWWGPTGDED-NH2), the Ki (Table 1, affinity maturation, mean ± SEM, n ≥ 3, read-out: Ki) is reported as 62 ± 1 nM, the Ki [4] is reported as 62 ± 1 nM and the “fold improved affinity compared to APPWT” value (relative to APPWT) is reported as ~10 fold.

For `CC[C@H](C)[C@H](NC(=O)[C@H](Cc1ccccc1)NC(=O)[C@H](CCC(=O)O)NC(=O)[C@@H](NC(=O)[C@H](CCC(=O)O)NC(C)=O)[C@@H](C)O)C(=O)N(C)[C@@H](C)C(=O)N[C@@H](Cc1c[nH]c2ccccc12)C(=O)NCC(=O)N1CCC[C@H]1C(=O)N[C@H](C(=O)NCC(=O)N[C@@H](CC(=O)O)C(=O)N[C@@H](CCC(=O)O)C(=O)N[C@@H](CC(=O)O)C(N)=O)[C@@H](C)O` [ETEFI(N-Me-A)WGPTGDED] (Ac-ETEFI[NMeA]WGPTGDED-NH2), the Ki (Table 8, in μM, read-out: Ki (nM) mean ± SEM) was > 6250 nM.

In the case of `CC(=O)N[C@@H](CCC(=O)O)C(=O)N[C@@H](CC(=O)O)C(=O)N[C@@H](CC(=O)O)C(=O)N[C@@H](CO)C(=O)N[C@@H](CC(=O)O)C(=O)N[C@H](C(=O)N[C@@H](Cc1c[nH]c2ccccc12)C(=O)N[C@@H](Cc1c[nH]c2ccccc12)C(=O)N[C@@H](Cc1ccc(OCc2ccccc2)cc1)C(=O)NCC(=O)N[C@@H](C)C(=O)N[C@@H](CC(=O)O)C(=O)N[C@H](C(=O)N[C@@H](CC(=O)O)C(N)=O)[C@@H](C)O)C(C)C` (Ac-EDDSDVWWY(Bn)GADTD-NH2), the Ki [3] is reported as 88 ± 4 nM.

For `CC[C@H](C)[C@H](NC(=O)[C@H](C)NC(=O)[C@H](Cc1c[nH]c2ccccc12)NC(=O)[C@@H]1CCCN1C(C)=O)C(=O)N[C@H](C(=O)N[C@@H](Cc1c[nH]c2ccccc12)C(=O)NCC(=O)N(C)CC(=O)N[C@H](C(=O)N[C@H](C(=O)N[C@@H](CO)C(=O)N[C@@H](CCCNC(=N)N)C(=O)N[C@@H](CCC(=O)O)C(=O)N[C@@H](CC(=O)O)C(N)=O)C(C)C)[C@@H](C)O)C(C)C` [PWAIVWG(N-Me-G)TVSRED] (Ac-PWAIVWG[Sar]TVSRED-NH2), the Ki (Table 9, Ala-, D-amino acids and N-methylation scans of PIANPWT, read-out: Ki (nM) mean ± SEM) was 525 ± 22 nM and the Ki [4] was 525 ± 22 nM.
